The text below walks through data of patent US4723039A, “Phenylacetaldehydes substituted by basic groups, their preparation and drugs containing these compounds” (BASF Aktiengesellschaft, priority 1985, dated 1988).

Structures can show the parent of a compound that is named as a salt.

In assay [1] the test system is secretion of gastric acid. The assay is described as follows: Inhibition of secretion of gastric acid. The assay is classed as in vivo, Sprague-Dawley rat (female). As to conditions: rat, oral; for ED (0.75 pH units): 1 h, dose increasing gastric mucosal surface pH by 0.75 pH units, read-out: Acid secretion-inhibiting effect ED 0.75; for Gastric acid secretion-inhibiting dose relative to verapamil: fraction of the dose required of verapamil. The protocol: Inhibition of the secretion of gastric acid is evident from an increase in the pH of the surface of the gastric mucous membrane. For this measurement, groups of from 5 to 10 female Sprague-Dawley rats weighing 160-190 g, which had remained without food for 48 hours (water ad libitum), were pretreated with different doses of the test substances, administered orally. […] The dose which produces an increase in the pH by 0.75 pH units is determined as the ED 0.75, from the linear regression of log dose and the increase in the pH.

The subject of assay [2] is lesions of the gastric mucous membrane. The assay is described as follows: Cytoprotective action (ethanol-induced gastric lesions). The assay is classed as in vivo, Sprague-Dawley rat (female). Conditions: rat, oral; for ED50: dose reducing lesions by 50%, read-out: Cytoprotective effect ED 50%. As to the method: The cytoprotective action was determined on groups of 8 female Sprague-Dawley rats weighing 160-190 g, the rats having received no food for 48 hours (water ad libitum) and having been pretreated with different doses of the test substances, administered orally. 1 hour later, 10 ml/kg of 100% ethanol were administered orally to the animals. After a further hour, the animals were sacrificed by inhalation of CO2, the stomach was removed and the intensity of the lesions was assessed on the basis of the following scheme:
0=unchanged mucous membrane
1=a few areas of reddening which are narrow, elongated or small
2=reddening over broad, elongated or large interrupted areas
3=pronounced reddening which colors virtually the entire mucous membrane of the glandular stomach.

The subject of assay [3] is ulcerous lesions on the mucous membrane. Put plainly: Antiulcerous action (reserpine/indomethacin-induced gastric ulceration). As to conditions: rat, oral; for ED50: dose reducing ulcerous area by 50%, read-out: Antiulcerous effect ED 50%. The assay is classed as in vivo, Sprague-Dawley rat (female). As to the method: To investigate the antiulcerous action, groups of 10 female Sprague-Dawley rats weighing 160-180 g received 1 mg/kg of reserpine, administered intraperitoneally, and thereafter remained without food for 18 hours (water ad libitum). […] Thereafter, they were kept for 6 hours at 8° C. and then sacrificed. The stomach was removed and the area of the ulcerous lesions on the mucous membrane was determined.

For assay [4], the system named is Histamine-induced bronchospasm. Put plainly: Broncholytic action, histamine-induced bronchospasm. The format is in vivo. As to conditions: guinea pig, intravenous; for ED75: Cavia porcellus, 75% reduction in bronchospasms, read-out: ED 75% histamine-induced bronchospasm; for Broncholytic activity compared with verapamil, histamine-induced (in words): text does not separate the inducers. From the text: (§1) The animals were artificially ventilated using a Starling pump.

Assay [5] concerns Acetylcholine-induced bronchospasm. Put plainly: Broncholytic action, acetylcholine-induced bronchospasm. The format is in vivo. As to conditions: guinea pig, intravenous; for ED75: Cavia porcellus, 75% reduction in bronchospasms, read-out: ED 75% acetylcholine-induced bronchospasm; for Broncholytic activity compared with verapamil, acetylcholine-induced (in words): text does not separate the inducers.
Source text: as §1

The test system of assay [6] is isolated spiral strips of aorta. Put plainly: Calcium-antagonistic action in isolated spiral strips of aorta. Conditions: in vitro; for EC50: Rattus norvegicus, 50% inhibition of the effect of 0.5 mM Ca++, K-depolarized strips, read-out: Ca-antagonistic action EC 50%; for Ca-antagonistic activity compared with verapamil (in words): rat aorta strips. Details: species or system Sprague-Dawley rat. The protocol: The Ca-antagonistic action was tested on spiral strips of aorta of male and female Sprague-Dawley rats weighing from 200 to 300 g.
The animals were sacrificed with ether, and the thorax and thoracic aorta were removed. A maximum of 6 spiral strips about 2 mm wide and 2 cm long were used per animal.
The strips of aorta were suspended in a modified tyrode solution at 37° C. and subjected to an initial tension with a load of 1.5 g and, after a relaxation time of about 1 hour, Ca was removed by keeping them for 5 minutes in Ca-free tyrode solution with the addition of 0.2 mM of Na EDTA.
The Ca-free strips of vessel were depolarized with K-rich tyrode solution for 10 minutes. Contraction was induced by a CaCl2 concentration of 0.5 mM. After 15 minutes, Ca was again removed from the strips of vessel by means of a Ca-free tyrode solution containing 0.2 mM of Na EDTA.
Depolarization was then effected again for 10 minutes with K-rich tyrode solution, after which 0.05 ml of the test substance was added. After the test substance had been allowed to act for 15 minutes, CaCl2 was again added in a concentration of 0.5 mM in order to check whether the test substance has a Ca-antagonistic action. Inhibition of the effect of 0.5 mM Ca^++ by the antagonistic substance is stated as a percentage.

The test system of a further assay is blood pressure. Put plainly: Hypotensive action in anesthetized rats. The format is in vivo, Sprague-Dawley rat. As to conditions: anesthetized rat; for Reduction in blood pressure, i.v., R.A.: verapamil = 1.0; for ED20: iv, 20% decrease in blood pressure, read-out: Reduction in blood pressure ED 20% i.v. As to the method:
The blood pressure was measured in the carotid artery. The substances were administered intravenously into the jugular vein. The dose which produces a 20% decrease in blood pressure was calculated as the ED 20%, from the linear regression of log dose (mg/kg) and relative decrease in blood pressure (Δ%).

The next assay has as its system systolic blood pressure. The assay is described as follows: Antihypertensive action in spontaneously hypertensive rats. The assay is classed as in vivo, spontaneously hypertensive male Okamoto rat. Conditions: for Reduction in blood pressure, p.o., R.A. / ED20: SH rat, p.o.; for Reduction in blood pressure, p.o., R.A.: verapamil = 1.00; for ED20: po, 2 hours after administration, 20% reduction in systolic pressure, read-out: Reduction in blood pressure ED 20% p.o. As to the method:
To determine the antihypertensive action, the substances were administered orally to spontaneously hypertensive male Okamoto rats (4-8 animals/dose, weight 270-360 g). The systolic blood pressure was measured noninvasively on the rat's tail with the aid of piezoelectric transducers, before and 2 hours after administration. The dose which reduces the systolic pressure by 20%, relative to the values for untreated control animals, was determined as the ED 20%.

Consider `CC(C)[C@@](C=O)(CCCN(C)CCc1ccccc1)c1ccccc1` [Example 2, (S)-2-[3-[(Phenylethyl)-methylamino]-propyl]-2-isopropylphenylacetaldehyde hydrochloride], for which, in assay [1], the ED (0.75 pH units) worked out at 2 mg/kg and the “Gastric acid secretion-inhibiting dose relative to verapamil” value was “one-fifth”. Further, the ED50 in assay [2] stood at 9.4 mg/kg. Besides, the ED50 in assay [3] is 12.2 mg/kg.
Take `CC(C)[C@](C=O)(CCCN(C)CCc1ccccc1)c1ccccc1` [Example 3, (R)-2-[3-[(Phenylethyl)-methylamino]-propyl]-2-isopropylphenylacetaldehyde hydrochloride]: the ED (0.75 pH units) in assay [1] worked out at 2.1 mg/kg. Also, in assay [1], the “Gastric acid secretion-inhibiting dose relative to verapamil” value was “one-fifth”. The values for the ED50 in assay [2] and in assay [3] were 8.3 mg/kg and 3.8 mg/kg, respectively.
For the molecule `COc1cccc(CCN(C)CCCC(C=O)(c2ccc(OC)c(OC)c2)C(C)C)c1` (stereo not drawn) [Example 6, 2-[3-[(3-Methoxyphenylethyl)-methylamino]-propyl]-2-isopropyl-3,4-dimethoxyphenylacetaldehyde], in assay [4], the ED75 was 0.59 mg/kg and the “Broncholytic activity compared with verapamil, histamine-induced (in words)” value is given as “substantially higher activity”. In assay [5], the ED75 was 0.39 mg/kg and the “Broncholytic activity compared with verapamil, acetylcholine-induced (in words)” value is “substantially higher activity”.
With `COc1cccc(CCN(C)CCCC(C=O)(c2cccc(OC)c2)C(C)C)c1` (stereo not drawn) [Example 7, 2-[3-[(3-Methoxyphenylethyl)-methylamino]-propyl]-2-isopropyl-3-methoxyphenylacetaldehyde], in assay [4], the ED75 came out at 0.61 mg/kg and the “Broncholytic activity compared with verapamil, histamine-induced (in words)” value was “substantially higher activity”. Besides, in assay [5], the ED75 stood at 0.67 mg/kg and the “Broncholytic activity compared with verapamil, acetylcholine-induced (in words)” value is “substantially higher activity”. Moreover, the EC50 in assay [6] came to 22 nM.
Turning to `COc1ccc(CCN(C)CCCC(C=O)(c2ccc(OC)c(OC)c2)C(C)C)cc1OC` (stereo not drawn) [Example 8, 2-[3-[(3,4-Dimethoxyphenylethyl)-methylamino]-propyl]-2-isopropyl-3,4-dimethoxyphenylacetaldehyde], in assay [4], the ED75 was 0.38 mg/kg and the “Broncholytic activity compared with verapamil, histamine-induced (in words)” value is “substantially higher activity”. In assay [5], the ED75 is 0.23 mg/kg and the “Broncholytic activity compared with verapamil, acetylcholine-induced (in words)” value is given as “substantially higher activity”.
Regarding `COc1cccc(CCN(C)CCCC(C=O)(c2cc(OC)c(OC)c(OC)c2)C(C)C)c1` (stereo not drawn) [Example 9, 2-[3-[(3-Methoxyphenylethyl)-methylamino]-propyl]-2-isopropyl-3,4,5-trimethoxyphenylacetaldehyde hydrogen oxalate], in assay [6], the EC50 was 1.2 nM and the “Ca-antagonistic activity compared with verapamil (in words)” value was “substantially higher activity”.
Turning to `COc1ccc(CCN(C)CCCC(C=O)(c2cc(OC)c(OC)c(OC)c2)C(C)C)cc1OC` (stereo not drawn) [Example 10, 2-[3-[3,4-Dimethoxyphenylethyl)-methylamino]-propyl]-2-isopropyl-3,4,5-trimethoxyphenylacetaldehyde hydrogen oxalate], in assay [6], the EC50 was 19 nM and the “Ca-antagonistic activity compared with verapamil (in words)” value is reported as “substantially higher activity”.
Take `COc1cc(CCN(C)CCCC(C=O)(c2cc(OC)cc(OC)c2)C(C)C)cc(OC)c1` (stereo not drawn) [Example 11, 2-[3-[(3,5-Dimethoxyphenylethyl)-methylamino]-propyl]-2-isopropyl-3,5-dimethoxyphenylacetaldehyde hydrogen oxalate]: in assay [6], the EC50 was 12 nM and the “Ca-antagonistic activity compared with verapamil (in words)” value is listed as “substantially higher activity”.
As to `CCOc1cc(CCN(C)CCCC(C=O)(c2cc(OCC)cc(OCC)c2)C(C)C)cc(OCC)c1` (stereo not drawn) [Example 12, 2-[3-[(3,5-Diethoxyphenylethyl)-methylamino]-propyl]1-2-isopropyl-3,5-diethoxyphenylacetaldehyde hydrogen oxalate], the “Reduction in blood pressure, i.v., R.A.” value in the assay with blood pressure came out at 1.13. In the assay on blood pressure (i.v.), the “Reduction of blood pressure compared with verapamil (in words)” value is “reduces the blood pressure to a somewhat greater extent than verapamil” and the ED20 was 0.3 mg/kg. Further, in the assay with systolic blood pressure, the “Reduction in blood pressure, p.o., R.A.” value turned out to be 6.25 and the ED20 came out at 4 mg/kg. In the assay on systolic blood pressure (conscious spontaneously hypertensive rats, oral), the “Blood pressure reducing dose, times smaller compared with verapamil” value is recorded as 6.3 times. In assay [4], the ED75 came to 0.65 mg/kg and the “Broncholytic activity compared with verapamil, histamine-induced (in words)” value is reported as “substantially higher activity”. For the same molecule, in assay [5], the ED75 is 0.27 mg/kg and the “Broncholytic activity compared with verapamil, acetylcholine-induced (in words)” value is “substantially higher activity”. The EC50 in assay [6] came to 32 nM.
Turning to `COc1ccc(CCN(C)CCCC(C#N)(c2ccc(OC)c(OC)c2)C(C)C)cc1OC` (stereo not drawn) [Verapamil, verapamil, reference compound], in assay [1], the ED (0.75 pH units) is 10.5 mg/kg. In addition, in assay [2], the “Cytoprotective effect ED 50% (no effect)” value is recorded as “(2)”. Besides, in assay [3], the “Antiulcerous effect ED 50% (no effect)” value is “(2)”. For the same molecule, the “Reduction in blood pressure, i.v., R.A.” value in the assay with blood pressure amounted to 1.0. Further, the ED20 in the assay on blood pressure (i.v.) was determined as 0.34 mg/kg; in the assay with systolic blood pressure, 25 mg/kg. For the same molecule, the “Reduction in blood pressure, p.o., R.A.” value with systolic blood pressure is 1.00. For the same molecule, the figures for the ED75 in assay [4] and in assay [5] were 1.3 mg/kg and 0.56 mg/kg, respectively. For the same molecule, the EC50 in assay [6] came to 35 nM.
